The text below walks through data of US20140378408A1, “NUCLEOSIDE 5'-PHOSPHOROTHIOATE ANALOGUES AND USES THEREOF” (BAR-ILAN UNIVERSITY, an Israeli University, priority 2012, published 2014).

Each structure is given as a SMILES string. Where two headings read alike, the source gives them in different places.

The subject of data set [1] is primary neurons. Description: Protection of primary neuron culture against Aβ42 insult (trypan blue count). Type of data set: cell-based. The protocol: Primary neuron cells were cultured in 96 wells plate (95×10^4 per well). After 24 h the cells were treated with 50 μM Aβ42 and various concentrations of APCPP-γ-S (0.04-25 μM) for 48 h. Cell viability was measured by dyeing the cells with trypan blue and counts of the vital cells. The results shown are the mean±S.D of three independent experiments in triplicate (*P<0.05, vs. Aβ42 treatment).
Primary neurons cells were cultured in 96 wells plate (95×10^4 per well). […] Cell viability was measured by dyeing the cells with trypan blue and counts the vital cells. The results shown are the mean±S.D of three independent experiments in triplicate (*P<0.05, **P<0.01 vs. Aβ42 treatment).
In this study, the neuroprotective activity of APCPP-γ-S in neuronal cells exposed to toxic Aβ42 was evaluated. At first we measured the number of the viable neuronal cells after treatment with Aβ42 (5-50 μM) (FIG. 11). At 50 μM Aβ42, 50% of the neuronal culture remained vital. Next, we measured the protective effect of APCPP-γ-S: primary neurons were treated with APCPP-γ-S (0.04-25 μM) and 50 μM Aβ42 for 48 h.

For data set [2], the system named is cortical neurons. Description: Neuroprotection of cultured cortical neurons exposed to FeSO4 or FeSO4/H2O2. The format is cell-based. Particulars: for protection: co-application with FeSO4 3 μM. The protocol: FIGS. 10A-10B show the neuroprotective effect of ATP-γ-S and GDP-β-S (0.2-200 μM, t=24 h) as evaluated by MTT production in cortical neurons exposed for 24 h to either FeSO4 at final concentration of 3 μM (10A); or both FeSO4 (3 μM) and H2O2 (100 μM) (10B). The results shown are the mean±SEM of three independent experiments in quadruplicate.
Cultured cortical neurons in 96-well plates were treated with different concentrations of FeSO4, or hydrogen peroxide and FeSO4, for 24 h at 37° C. Following exposure to various insults, the cells were treated with ATP-γ-S and GDP-β-S as described. Cells were subsequently incubated for a further 18-24 h as indicated before being assessed for viability measures. Neurons were treated with ATP-γ-S and GDP-β-S at three concentrations ([…]) simultaneously with 1.5, 3 or 6 μM FeSO4 for 24 h. Following 24 h incubation in the presence of both FeSO4 and ATP-γ-S and GDP-β-S cell viability measures were assessed by XTT assay. All experiments were performed in triplicate.
FeSO4 induced a concentration-dependent decrease in cell viability as assessed by XTT assay and morphological assessment following 24 h of exposure (FIG. 9). The neuroprotective effect of ATP-γ-S and GDP-β-S (due to iron chelation) was evaluated in cortical neurons exposed to FeSO4 for 24 h (FIG. 10).

The conditions of data set [3]: literature; cited from earlier work.
In data set [4] the target is T1, TNAP (Homo sapiens, UniProt P05186).
T1 sequence (P05186 18-501): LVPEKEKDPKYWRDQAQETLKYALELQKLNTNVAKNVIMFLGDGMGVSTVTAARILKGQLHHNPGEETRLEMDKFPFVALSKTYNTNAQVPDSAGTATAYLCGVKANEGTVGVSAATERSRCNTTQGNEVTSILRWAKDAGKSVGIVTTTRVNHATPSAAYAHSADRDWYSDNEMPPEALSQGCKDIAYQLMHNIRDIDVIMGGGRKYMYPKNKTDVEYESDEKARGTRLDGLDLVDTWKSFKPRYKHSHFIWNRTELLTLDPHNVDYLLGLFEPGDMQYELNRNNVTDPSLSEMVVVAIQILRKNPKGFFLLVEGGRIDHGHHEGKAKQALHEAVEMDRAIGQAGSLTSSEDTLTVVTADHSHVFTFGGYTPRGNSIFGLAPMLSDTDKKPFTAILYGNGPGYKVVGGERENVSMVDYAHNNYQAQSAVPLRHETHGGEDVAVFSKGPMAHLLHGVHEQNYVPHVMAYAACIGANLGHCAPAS
Description: Hydrolysis by TNAP. The note with it: 1 h. The format is in vitro ADME. The source says:
The metabolic stability of APPCCl2P-α-S (isomer A) and APCPP-γ-S was further proven by their resistance to enzymatic hydrolysis by TNAP.

For data set [5], the system named is PC12 cells. The data set is described as follows: Inhibition of Fe(II)-induced ROS formation in PC12 cells (DCFH-DA). The format is cell-based. Particulars: PC12 cells, FeSO4 0.16 μM, 1 h, DCFH-DA; read-out: IC50 inhibition of ROS formation. The protocol:
In this study, nucleoside 5′-phosphorothioate analogues were explored as inhibitors of Fe(II)-induced oxidative stress in PC12 cells used as a neuronal model. Reduction of ROS production in PC12 cells by each one of the tested analogues was measured by DCFH-DA, a radical sensitive indicator. After DCFH-DA was removed, the tested analogue was added to the cells at a final concentration of 0.2-200 μM. Oxidation was initiated by the addition of FeSO4 (0.16 μM) to the wells. The plates were incubated for 1 h at 37° C., during which the absorbance was read by a Tecan fluorometer at 485/530 nm.

Data set [6] deals with T2, Aβ40-Cu^2+ aggregates (Homo sapiens, UniProt P05067).
T2 construct: purchased GL-Biochem (Shanghai)
T2 sequence (P05067 672-711 limits assumed): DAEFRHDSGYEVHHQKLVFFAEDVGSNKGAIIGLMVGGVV
Description: DLS, size reduction of Aβ40-Cu^2+ aggregates. Particulars: aggregate alone 1836 nm; 25 μM Aβ40-Cu^2+, pH 6.6. The protocol: PBS buffer, Aβ40, chelator, Zn(NO3)2, and Cu(NO3)2 solutions were filtered through a […] PVDF syringe filter. 496 μM Aβ40 solution in 10 mM PBS (pH 7.4) and 2 mM Zn(NO3)2 solution were mixed to obtain 200 μM Aβ40-Zn^2+ (1:1 ratio) of a cloudy solution. Similarly, 2 mM Cu(NO3)2 solution was added to 496 μM Aβ40 in 10 mM PBS (pH 6.6). Aβ40-Zn^2+/Cu^2+ (10 μl) solution was transferred to Eppendorf tubes containing 10 mM PBS buffer (64 or 67 μl) followed by the addition of 3 and 6 eq of 2 mM nucleotide (6 or 3 μl) solution and incubation for 45 min at RT. The resulting mixture was incubated for another 30 min at RT and DLS data were then collected in a 70 μl disposable cuvette. The final sample concentrations were 25 μM Aβ40, 25 μM Zn^2+ or Cu^2+, and 150 or 75 μM nucleotide.
Monomeric Aβ40 was incubated with either Cu^2+ or Zn^2+ for 45 min to form a 1:1 peptide metal-ion complex. […] For the Aβ40-Zn^2+ particles the instrument readings indicated a different size distribution. […] We evaluated the capacity of the phosphorothioate analogues to dissolve Aβ40-Cu^2+ or Zn^2+ aggregates, as compared to EDTA and clioquinol known for their ability to dissolve Aβ-M^2+ aggregates (Ritchie et al., 2003; Huang et al., 1997). The reduction of dH of Aβ40-Cu^2+ aggregates by EDTA, clioquinol, or tested compounds was compared to the dH of Aβ-Cu^2+ aggregate itself (FIG. 5A). In addition, the efficacy of the chelators ATP-γ-S, ADP-β-S, APCPP-γ-S and GDP-β-S to resolubilize Aβ40-Cu^2+ and Aβ40-Zn^2+ is described in FIGS. 5B and 5C relative to EDTA and clioquinol. EDTA efficiency in reducing Aβ particle size is considered as 100%.

For data set [7] the following is noted: OH radical inhibition, Fe^2+/H2O2 system, earlier work; cited from earlier work.
Data set [8] has as its target T3, Aβ40-Zn^2+ aggregates (Homo sapiens, UniProt P05067).
T3 construct: Monomeric Aβ40 was incubated with either Cu^2+ or Zn^2+; purchased GL-Biochem (Shanghai)
The data set is described as follows: DLS, re-solubilization of Aβ40-Zn^2+ aggregates. Particulars: EDTA = 100%, clioquinol value refers to FIG. 5B, 5C.

For data set [9], the target named is T4, Aβ28-Cu^+ complex (Homo sapiens, UniProt P05067).
T4 construct: we first studied Aβ28, as a more soluble fragment of Aβ40; purchased Sigma-Aldrich
T4 sequence (P05067 672-699 limits assumed, one chain of several): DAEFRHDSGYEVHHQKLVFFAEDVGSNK
Description: Titration of Aβ28-Cu^+ complex by chelators monitored by 1H-NMR. The note with it: 6 eq chelator, 0.8 mM Aβ28-Cu^+, pD 7.

The nature of data set [10]: ESR OH radical assay, Fe^2+/H2O2 Fenton system. The note with it: N/A = minimal radical production exceeds 10%.
The conditions of data set [11]: literature; cited from earlier work. The source holds these as a separate data set.
Data set [12] in a line: ESR OH radical assay, Cu^+/H2O2 Fenton system. Particulars: N/A = minimal radical production exceeds 10%.
Data set [13] relates to PC12 cells. The data set is described as follows: Stability of nucleotides in PC12 cells.
The mark [14] stands for this setting: Table 2, neuroprotection of primary neurons exposed to FeSO4, read-out: IC50.
The mark [15] stands for this setting: co-application of FeSO4 3 μM and H2O2 100 μM, read-out: IC50 neuroprotection.
Setting [16] is: cortical neurons, FeSO4 3 μM, 24 h, read-out: IC50 neuroprotection.

T3 sequence (P05067 672-711 limits assumed): as the sequence (P05067 672-711 limits assumed) above

On to `Nc1ncnc2c1ncn2[C@@H]1O[C@H](COP(=O)(O)OP(=O)(O)OP(=O)(O)O)[C@@H](O)[C@H]1O` [ATP, adenosine triphosphate], for which the neuronal cells maintained in [1] (at 25 μM, 50 μM Aβ42, 48 h) is on record as 45%. The IC50 in [2] (Cortical neurone, Table 2, neuroprotection of primary neurons exposed to FeSO4, read-out: IC50) is 30000 ± 2100 nM. Besides, in data set [3], the “log K of Cu^2+ complex” value is given as 6.34. The “Hydrolysis by TNAP” value in data set [4] turned out to be 100%.

In the case of `Nc1ncnc2c1ncn2[C@@H]1O[C@H](COP(=O)(O)OP(=O)(O)OP(O)(O)=S)[C@@H](O)[C@H]1O` [ATP-γ-S, Adenosine 5′-[γ-thio]-triphosphate], the IC50 in data set [1] (50 μM Aβ42, 48 h, read-out: concentration that maintained 50% of neuronal cells) stood at 800 nM; in data set [1] (primary neurons, read-out: IC50 protection from Aβ42 insult), 800 nM; in data set [2] (setting [14]), 10 ± 8 nM; in data set [2] (setting [15]) it was 1000 nM; in data set [2] (setting [16]), 10 nM; in [2] (primary cortical neuronal cells, read-out: IC50 protection from damage caused by FeSO4) it was 10 nM. The IC50 in data set [5] amounted to 180 nM. The compound further gave a protection in data set [2] (24 h) of 100%. Further, the “dH (particle size) of Aβ40-Cu^2+ after chelator” value in data set [6] is recorded as 110 nm. In [7], the “times more active than ATP” value was 100. For the same compound, the “times more active than Trolox” value in data set [7] is 20.

As for `Oc1c(I)cc(Cl)c2cccnc12` [Clioquinol, 5-chloro-7-iodoquinolin-8-ol], the “dH (particle size) of Aβ40-Cu^2+ after chelator” value in data set [6] came out at 127 nm. For the same compound, in data set [8], the “efficacy in resolubilizing aggregates relative to EDTA” value was “ca. 75 % of EDTA efficacy”. Besides, the “effect on Aβ28-Cu^+ 1H-NMR spectrum” value in data set [9] is “slightly sharpened, yet, no signal pattern emerged”.

Regarding `O=C(O)CN(CCN(CC(=O)O)CC(=O)O)CC(=O)O` [EDTA, ethylenediamine tetraacetic acid], the IC90 in data set [10] worked out at 98 ± 1 µM; in [12], 110 ± 7 µM. Also, the “log K of Zn^2+ complex” value in [11] is given as 16.5. Also, the “log K of Cu^2+ complex” value in data set [3] is given as 18.8.

Consider `Nc1nc2c(ncn2[C@@H]2O[C@H](COP(=O)(O)OP(O)(O)=S)[C@@H](O)[C@H]2O)c(=O)[nH]1` [GDP-β-S, guanosine 5′-[β-thio]diphosphate], for which the IC50 in [2] (setting [14]) stood at 80 ± 3 nM; in data set [2] (setting [15]), 4000 nM; in data set [2] (setting [16]) it was 8 nM; in [5], 10000 nM. Also, the protection in data set [2] (24 h) is on record as 130%. The “fold more stable in PC12 cells than parent nucleotide (GDP, ADP)” value in [13] is listed as 4.5 fold. In addition, the “effect on Aβ28-Cu^+ 1H-NMR spectrum” value in data set [9] was “partial recovery of Aβ28 aromatic signals”.

Broadly, the IC90 is the concentration needed for an effect of 90%.
